12 compounds from PubChem BioAssay AID256 (DTP/NCI, 2004) can be followed below.

The experiment deals with CD2F1 mice, L1210 leukemia ip, survival T/C. Description: NCI In Vivo Anticancer Drug Screen. Data for tumor model L1210 Leukemia (intraperitoneal) in CD2F1 (CDF1) mice. Conditions: higher = longer survival. A digest of the protocol:
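Activity against a transplanted murine tumor was judged by comparing the compound group with a vehicle group. The outcome in the treated animals was divided by that in the controls.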

[1] abbreviates: endpoint: mean survival time, dose: 25.0 mg/kg/injection, schedule: Q01DX009 (ip), vehicle: saline with Tween-80.
[2] abbreviates: endpoint: mean survival time, dose: 50.0 mg/kg/injection, schedule: Q01DX009 (ip), vehicle: saline with Tween-80.

Values joined by “and” are separate entries in the source; they are usually repeats but may differ in a detail not shown here. Equal entries are not always repeated. Toxic doses and inconclusive results are not listed.

Turning to `COC12[C@@H]3N[C@@H]3CN1C1=C(C(=O)C(NCCSSCCNC3=C(C)C(=O)C4=C(C3=O)C(COC(N)=O)[C@]3(OC)C5N[C@@H]5CN43)=C(C)C1=O)[C@@H]2COC(N)=O` (stereo not given in full), the T/C was 109 % of control (endpoint: mean survival time, dose: 1.5 mg/kg/injection, schedule: Q01DX001 (ip), vehicle: distilled water + Tween-80); 110 % of control (endpoint: mean survival time, dose: 1.5 mg/kg/injection, schedule: Q01DX001 (ip), vehicle: water); 121 % of control (endpoint: mean survival time, dose: 3.0 mg/kg/injection, schedule: Q01DX001 (ip), vehicle: water); 122 % of control (endpoint: mean survival time, dose: 6.0 mg/kg/injection, schedule: Q01DX001 (ip), vehicle: water); 162 % of control (endpoint: mean survival time, dose: 12.0 mg/kg/injection, schedule: Q01DX001 (ip), vehicle: distilled water + Tween-80); 151 % of control (endpoint: mean survival time, dose: 12.0 mg/kg/injection, schedule: Q01DX001 (ip), vehicle: water). Moreover, the T/C is 104 % of control (endpoint: mean survival time, dose: 24.0 mg/kg/injection, schedule: Q01DX001 (ip), vehicle: water); 108 % of control (endpoint: median survival time, dose: 0.05 mg/kg/injection, schedule: Q01DX009 (ip), vehicle: other); 119 % of control (endpoint: median survival time, dose: 0.1 mg/kg/injection, schedule: Q01DX009 (ip), vehicle: other); 119 % of control (endpoint: median survival time, dose: 0.2 mg/kg/injection, schedule: Q01DX009 (ip), vehicle: other); 104 % of control (endpoint: median survival time, dose: 0.2 mg/kg/injection, schedule: Q04DX003 (ip), vehicle: other); 119 % of control (endpoint: median survival time, dose: 0.4 mg/kg/injection, schedule: Q01DX001 (ip), vehicle: other). For the same compound, the T/C reads like this: (endpoint: median survival time, dose: 0.4 mg/kg/injection, schedule: Q04DX003 (ip), vehicle: other) 110 % of control; (endpoint: median survival time, dose: 0.8 mg/kg/injection, schedule: Q01DX001 (ip), vehicle: other) 116 % of control; (endpoint: median survival time, dose: 0.8 mg/kg/injection, schedule: Q04DX003 (ip), vehicle: other) 124 % of control; (endpoint: median survival time, dose: 1.6 mg/kg/injection, schedule: Q03DX003 (ip), vehicle: other) 151 % of control; (endpoint: median survival time, dose: 3.2 mg/kg/injection, schedule: Q01DX009 (ip), vehicle: other) 161 % of control; (endpoint: median survival time, dose: 3.2 mg/kg/injection, schedule: Q03DX003 (ip), vehicle: other) 154 % of control and 176 % of control. The T/C was 165 % of control (endpoint: median survival time, dose: 3.2 mg/kg/injection, schedule: Q04DX003 (ip), vehicle: other); 124 % of control (endpoint: median survival time, dose: 6.4 mg/kg/injection, schedule: Q01DX009 (ip), vehicle: other); 173 % of control and 187 % of control (endpoint: median survival time, dose: 6.4 mg/kg/injection, schedule: Q03DX003 (ip), vehicle: other); 178 % of control (endpoint: median survival time, dose: 6.4 mg/kg/injection, schedule: Q04DX003 (ip), vehicle: other); 168 % of control (endpoint: median survival time, dose: 9.6 mg/kg/injection, schedule: Q01DX001 (ip), vehicle: other); 154 % of control (endpoint: median survival time, dose: 9.6 mg/kg/injection, schedule: Q03DX003 (ip), vehicle: other). In addition, the T/C runs as follows: (endpoint: median survival time, dose: 9.6 mg/kg/injection, schedule: Q04DX003 (ip), vehicle: other) 169 % of control; (endpoint: median survival time, dose: 19.2 mg/kg/injection, schedule: Q01DX001 (ip), vehicle: other) 160 % of control.

Turning to `Cc1ccc(C)c(C(O)C(=O)O)c1` (stereo not given), the T/C is, setting by setting: (endpoint: mean survival time, dose: 100.0 mg/kg/injection, schedule: Q04DX002 (ip), vehicle: Klucel (hydroxypropylcellulose) (HPC)) 94 % of control; (endpoint: mean survival time, dose: 200.0 mg/kg/injection, schedule: Q04DX002 (ip), vehicle: Klucel (hydroxypropylcellulose) (HPC)) 105 % of control; (endpoint: mean survival time, dose: 400.0 mg/kg/injection, schedule: Q04DX002 (ip), vehicle: Klucel (hydroxypropylcellulose) (HPC)) 98 % of control.

In the case of `Cc1[nH]c(=S)[nH]c(=O)c1Cc1c(O)ccc2ccccc12`, the T/C reads like this: (endpoint: mean survival time, dose: 100.0 mg/kg/injection, schedule: Q01DX001 (ip), vehicle: saline) 97 % of control; (endpoint: mean survival time, dose: 200.0 mg/kg/injection, schedule: Q01DX001 (ip), vehicle: saline) 100 % of control; (endpoint: mean survival time, dose: 400.0 mg/kg/injection, schedule: Q01DX001 (ip), vehicle: saline) 103 % of control.

Consider `CC(O)CNC1CCCCC1` (stereo not given), for which the T/C was 97 % of control under setting [1]; 97 % of control under setting [2]; 97 % of control (endpoint: mean survival time, dose: 100.0 mg/kg/injection, schedule: Q01DX009 (ip), vehicle: saline with Tween-80).

In the case of `CC1(C)C2C3C=CC(C3)C2S1(=O)=O` (stereo not given), the T/C (endpoint: mean survival time, dose: 1.25 mg/kg/injection, schedule: Q01DX009 (ip), vehicle: saline with Tween-80) was 100 % of control; the T/C (endpoint: mean survival time, dose: 1.25 mg/kg/injection, schedule: Q04DX003 (ip), vehicle: saline with Tween-80) is 110 % of control; the T/C (endpoint: mean survival time, dose: 2.5 mg/kg/injection, schedule: Q01DX001 (ip), vehicle: saline) was 100 % of control; the T/C (endpoint: mean survival time, dose: 2.5 mg/kg/injection, schedule: Q01DX009 (ip), vehicle: saline with Tween-80) is 101 % of control; the T/C (endpoint: mean survival time, dose: 2.5 mg/kg/injection, schedule: Q04DX003 (ip), vehicle: saline with Tween-80) is 100 % of control; the T/C (endpoint: mean survival time, dose: 5.0 mg/kg/injection, schedule: Q01DX001 (ip), vehicle: saline) was 100 % of control. Moreover, the T/C is 101 % of control (endpoint: mean survival time, dose: 5.0 mg/kg/injection, schedule: Q01DX009 (ip), vehicle: saline with Tween-80) and 107 % of control (endpoint: mean survival time, dose: 5.0 mg/kg/injection, schedule: Q04DX003 (ip), vehicle: saline with Tween-80).

On to `O=C(c1ccccc1)C(CC[P+](c1ccccc1)(c1ccccc1)c1ccccc1)(OBr)c1ccccc1` (stereo not given), for which the T/C was 112 % of control (endpoint: mean survival time, dose: 6.25 mg/kg/injection, schedule: Q01DX001 (ip), vehicle: saline with Tween-80); 97 % of control (endpoint: mean survival time, dose: 12.5 mg/kg/injection, schedule: Q01DX001 (ip), vehicle: saline with Tween-80); 101 % of control (endpoint: mean survival time, dose: 25.0 mg/kg/injection, schedule: Q01DX001 (ip), vehicle: saline with Tween-80).

As to `CC(=Nc1ccccc1)C1=C(O)C(Cc2cccc(F)c2)NC1=O` (stereo not given), the T/C by setting is: (endpoint: mean survival time, dose: 100.0 mg/kg/injection, schedule: Q04DX002 (ip), vehicle: saline with Tween-80) 116 % of control; (endpoint: mean survival time, dose: 400.0 mg/kg/injection, schedule: Q04DX002 (ip), vehicle: saline with Tween-80) 103 % of control.

On to `CCCCOP(=O)(OCCCC)C(CCC)OP(OC(CCC)P(=O)(OCCCC)OCCCC)OC(CCC)P(=O)(OCCCC)OCCCC` (stereo not given), for which the T/C is, setting by setting: (endpoint: mean survival time, dose: 100.0 mg/kg/injection, schedule: Q04DX002 (ip), vehicle: saline) 103 % of control; (endpoint: mean survival time, dose: 200.0 mg/kg/injection, schedule: Q04DX002 (ip), vehicle: saline) 89 % of control; (endpoint: mean survival time, dose: 400.0 mg/kg/injection, schedule: Q04DX002 (ip), vehicle: saline) 97 % of control.

`COC(=O)CNc1ccn(C2OC(CO)C(O)C2O)c(=O)n1` (stereo not given): the T/C runs as follows: (endpoint: mean survival time, dose: 12.5 mg/kg/injection, schedule: Q01DX005 (ip), vehicle: distilled water + Tween-80) 96 % of control; (endpoint: mean survival time, dose: 25.0 mg/kg/injection, schedule: Q01DX005 (ip), vehicle: distilled water + Tween-80) 100 % of control; (endpoint: mean survival time, dose: 50.0 mg/kg/injection, schedule: Q01DX005 (ip), vehicle: distilled water + Tween-80) 100 % of control; (endpoint: mean survival time, dose: 100.0 mg/kg/injection, schedule: Q01DX005 (ip), vehicle: distilled water + Tween-80) 97 % of control; (endpoint: mean survival time, dose: 200.0 mg/kg/injection, schedule: Q01DX005 (ip), vehicle: distilled water + Tween-80) 103 % of control.

As for `O=c1[nH]c(=S)[nH]c(-c2ccc(Cl)cc2)c1CCO`, the T/C is 94 % of control (endpoint: mean survival time, dose: 100.0 mg/kg/injection, schedule: Q04DX003 (ip), vehicle: saline with Tween-80); 92 % of control (endpoint: mean survival time, dose: 200.0 mg/kg/injection, schedule: Q04DX003 (ip), vehicle: saline with Tween-80); 90 % of control (endpoint: mean survival time, dose: 400.0 mg/kg/injection, schedule: Q04DX003 (ip), vehicle: saline with Tween-80).

For `CC(Cc1ccccc1)NC(N)=O` (stereo not given), the T/C is, setting by setting: (endpoint: mean survival time, dose: 12.5 mg/kg/injection, schedule: Q01DX009 (ip), vehicle: saline with Tween-80) 100 % of control; under setting [1], 97 % of control; under setting [2], 92 % of control.

For `Cc1ccc(C2=CSc3ccccc3N2)c(C)c1`, the T/C reads like this: (endpoint: mean survival time, dose: 100.0 mg/kg/injection, schedule: Q04DX002 (ip), vehicle: other) 96 % of control; (endpoint: mean survival time, dose: 200.0 mg/kg/injection, schedule: Q04DX002 (ip), vehicle: other) 100 % of control; (endpoint: mean survival time, dose: 400.0 mg/kg/injection, schedule: Q04DX002 (ip), vehicle: other) 100 % of control.
